Measured values as given in US10219516B2, “Molecules having pesticidal utility, and intermediates, compositions, and processes, related thereto” (priority 2015, dated 2019).
Read-outs that look alike come from different tables or passages of the source.

What was measured:
Type in all cases: in vivo
[1] = system: Beet Armyworm (Spodoptera exigua, LAPHEG); assay: Bioassay on Beet Armyworm (BAW), 128-well diet tray assay
In short: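 In a 128-well format, eight wells per compound received a surface dose of 50 μg/cm^2 on artificial diet. After drying, each well got one to five second instar larvae, held at 25° C. with 14:10 photoperiod. Mortality percentages after five to seven days were averaged.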

[2] = system: Cabbage Looper (Trichoplusia ni, TRIPNI); assay: Bioassay on Cabbage Looper (CL), 128-well diet tray assay; conditions: Trichoplusia ni
In short: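 Second-instar larvae, one to five per well, were placed on artificial diet surface-treated with 50 μg/cm^2 test molecule applied in 90:10 acetone-water and dried, eight wells per molecule. Trays were covered, vented and held at 25° C., 14:10 light-dark for five to seven days; percent mortality per well was averaged.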

[3] = system: Yellow Fever Mosquito (Aedes aegypti, AEDSAE); assay: Bioassay on Yellow Fever Mosquito (YFM), 96-well plate larval assay; conditions: for YFM rating: Yellow Fever Mosquito, 96-well plate larval assay; for YFM (Biological Results, rating): Species YFM (Yellow Fever Mosquito)
In short: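 Aedes aegypti larvae (about 1 day old) in liver-powder water were added to plates dispensed from DMSO master plates (4000 ppm stock) diluted with 90:10 water/acetone; six replicate plates per master. Lidded plates were held at room temperature for 3 days, then each well was scored for mortality.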

[4] = Beet Armyworm, 128-well diet tray assay, read-out: BAW rating
[5] = Cabbage Looper, 128-well diet tray assay, read-out: CL rating
[6] = Species BAW (Beet Armyworm), read-out: BAW (Biological Results, rating)
[7] = Species CL (Cabbage Looper), read-out: CL (Biological Results, rating)

| SMILES | pest or weed control at 50 µg/cm2 [1, 4] [%] | pest or weed control at 50 µg/cm2 [2, 5] [%] | YFM rating [3] | pest or weed control at 50 µg/cm2 [1, 6] [%] | pest or weed control at 50 µg/cm2 [2, 7] [%] | YFM (Biological Results, rating) [3] |
| --- | --- | --- | --- | --- | --- | --- |
| O=C(Nc1ccc(F)cc1F)c1cc(NC(=O)[C@H]2[C@H](c3ccc(F)c(Cl)c3)C2(Cl)Cl)ccc1Cl (relative stereo) [PF6, trans-2-Chloro-5-(2,2-dichloro-3-(3-chloro-4-fluorophenyl)cyclopropane-1-carboxamido)-N-(2,4-difluorophenyl)benzamide] | 50 to 100 | 50 to 100 | A (80-100) |  |  |  |
| Nc1c(F)ccc(NC(=O)c2cc(NC(=O)[C@H]3[C@H](c4cccc(C(F)(F)F)c4)C3(Cl)Cl)ccc2Cl)c1F (relative stereo) [F341, trans-N-(3-Amino-2,4-difluorophenyl)-2-chloro-5-(2,2-dichloro-3-(3-(trifluoromethyl)phenyl)cyclopropane-1-carboxamido)benzamide] |  |  |  | 50 to 100 | 50 to 100 | A (80-100) |
| O=C(Nc1cc(F)c2cc[nH]c2c1)c1cc(NC(=O)C2C(c3cc(Cl)cc(Cl)c3)C2(Cl)Cl)ccc1Cl (stereo not drawn) [F173, 2-Chloro-5-(trans)-2,2-dichloro-3-(3,5-dichlorophenyl)cyclopropane-1-carboxamido)-N-(4-fluoro-1H-indol-6-yl)benzamide] |  |  |  | 50 to 100 | 50 to 100 | B (More than 0-Less than 80) |
| Nc1cccc(NC(=O)c2cc(NC(=O)[C@H]3[C@H](c4cc(Cl)cc(Cl)c4)C3(Cl)Cl)ccc2Cl)c1F [F426, N-(3-Amino-2-fluorophenyl)-2-chloro-5-((1R,3R)-2,2-dichloro-3-(3,5-dichlorophenyl)cyclopropane-1-carboxamido)benzamide] | 50 to 100 | 50 to 100 | A (80-100) |  |  |  |
| O=C(Nc1cncc([N+](=O)[O-])c1)c1cc(NC(=O)[C@H]2[C@H](c3cc(Cl)cc(Cl)c3)C2(Cl)Cl)ccc1Cl [F358, 2-Chloro-5-((1R,3R)-2,2-dichloro-3-(3,5-dichlorophenyl)cyclopropane-1-carboxamido)-N-(5-nitropyridin-3-yl)benzamide] |  |  |  | 50 to 100 | 50 to 100 | A (80-100) |
| O=C(Nc1ccc(F)cc1[N+](=O)[O-])c1cc(NC(=O)[C@H]2[C@H](c3cc(Cl)c(Cl)c(Cl)c3)C2(Cl)Cl)ccc1Cl [F556, 2-Chloro-5-((1R,3R)-2,2-dichloro-3-(3,4,5-trichlorophenyl)cyclopropane-1-carboxamido)-N-(4-fluoro-2-nitrophenyl)benzamide] | 50 to 100 | 50 to 100 | A (80-100) |  |  |  |
| CNc1cc(NC(=O)c2cc(NC(=O)[C@H]3[C@H](c4cc(Cl)cc(Cl)c4)C3(Cl)Cl)ccc2Cl)ccc1F (relative stereo) [F239, trans-2-Chloro-5-(2,2-dichloro-3-(3,5-dichlorophenyl)cyclopropane-1-carboxamido)-N-(4-fluoro-3-(methylamino)phenyl)benzamide] |  |  |  | 50 to 100 | 50 to 100 | A (80-100) |
| Cn1nc(NC(=O)c2cc(NC(=O)[C@H]3[C@H](c4cc(Cl)cc(Cl)c4)C3(Cl)Cl)ccc2Cl)c2cc(C(F)(F)F)ccc21 (relative stereo) [F460, 2-Chloro-5-(trans)-(2,2-dichloro-3-(3,5-dichlorophenyl)cyclopropane-1-carboxamido)-N-(1-methyl-5-(trifluoromethyl)-1H-indazol-3-yl)benzamide] | 50 to 100 | 50 to 100 | A (80-100) |  |  |  |
| Cc1cc(N)ccc1NC(=O)c1cccc(NC(=O)[C@H]2[C@H](c3cc(Cl)c(Cl)c(Cl)c3)C2(Cl)Cl)c1 (relative stereo) [F264, trans-N-(4-Amino-2-methylphenyl)-3-(2,2-dichloro-3-(3,4,5-trichlorophenyl)cyclopropane-1-carboxamido)benzamide] |  |  |  | 50 to 100 | 50 to 100 | A (80-100) |
| C=Cc1cc([C@H]2[C@H](C(=O)Nc3ccc(Cl)c(C(=O)Nc4ccc(F)cc4F)c3)C2(Cl)Cl)ccc1F (relative stereo) [F390, 2-Chloro-5-(trans-2,2-dichloro-3-(4-fluoro-3-vinylphenyl)cyclopropane-1-carboxamido)-N-(2,4-difluorophenyl)benzamide] | 50 to 100 | 50 to 100 | A (80-100) |  |  |  |
| Nc1c(F)cc(NC(=O)c2cc(NC(=O)[C@H]3[C@H](c4ccc(Cl)c(Cl)c4)C3(Cl)Cl)ccc2Cl)cc1F [F379, N-(4-Amino-3,5-difluorophenyl)-2-chloro-5-((1R,3R)-2,2-dichloro-3-(3,4-dichlorophenyl)cyclopropane-1-carboxamido)benzamide] | 50 to 100 | 50 to 100 | A (80-100) |  |  |  |
| O=C(Nc1ncc(F)cc1F)c1cc(NC(=O)[C@H]2[C@H](c3ccc(F)c(C(F)F)c3)C2(Cl)Cl)ccc1Cl (relative stereo) [F587, 2-Chloro-5-(trans-2,2-dichloro-3-(3-(difluoromethyl)-4-fluorophenyl)cyclopropane-1-carboxamido)-N-(3,5-difluoropyridin-2-yl)benzamide] | 50 to 100 | 50 to 100 | A (80-100) |  |  |  |
| N#Cc1c(Cl)cccc1NC(=O)c1cc(NC(=O)[C@H]2[C@H](c3cc(Cl)cc(Cl)c3)C2(Cl)Cl)ccc1Cl (relative stereo) [F302, 2-Chloro-N-(3-chloro-2-cyanophenyl)-5-(trans-2,2-dichloro-3-(3,5-dichlorophenyl)cyclopropane-1-carboxamido)benzamide] |  |  |  | 50 to 100 | 50 to 100 | A (80-100) |
| Nc1cc(F)ccc1NC(=O)c1cc(NC(=O)[C@H]2[C@H](c3ccc(F)c(Cl)c3)C2(Cl)Cl)ccc1Cl [F578, N-(2-Amino-4-fluorophenyl)-2-chloro-5-((1R,3R)-2,2-dichloro-3-(3-chloro-4-fluorophenyl)cyclopropane-1-carboxamido)benzamide] | 50 to 100 | 50 to 100 | A (80-100) |  |  |  |
| O=C(Nc1nnn[nH]1)c1cc(NC(=O)[C@H]2[C@H](c3cc(Cl)cc(Cl)c3)C2(Cl)Cl)ccc1Cl (relative stereo) [PF130, trans-2-Chloro-5-(2,2-dichloro-3-(3,5-dichlorophenyl)cyclopropane-1-carboxamido)-N-(1H-tetrazol-5-yl)benzamide] | 50 to 100 | 50 to 100 | B (More than 0-Less than 80) |  |  |  |
| Nc1cc(NC(=O)c2cc(NC(=O)[C@H]3[C@H](c4ccc(Cl)c(Br)c4)C3(Cl)Cl)ccc2Cl)c(F)cc1F [F580, N-(5-Amino-2,4-difluorophenyl)-5-((1R,3R)-3-(3-bromo-4-chlorophenyl)-2,2-dichlorocyclopropane-1-carboxamido)-2-chlorobenzamide] | 50 to 100 | 50 to 100 | A (80-100) |  |  |  |
| Cn1ccc2cc(NC(=O)c3cc(NC(=O)C4C(c5cc(Cl)cc(Cl)c5)C4(Cl)Cl)ccc3Cl)ccc21 (stereo not drawn) [F457, 2-Chloro-5-(trans)-2,2-dichloro-3-(3,5-dichlorophenyl)cyclopropane-1-carboxamido)-N-(1-methyl-1H-indol-5-yl)benzamide] | 50 to 100 | 50 to 100 | A (80-100) |  |  |  |
